Experimental data taken from patent publication US6462089B1, “Method for correcting the vigilance disorders associated with myopathies” (priority 2000, dated 2002).

How the values were obtained:
c-fos proto-oncogene = details: cats, awakening doses; Lin et al. PNAS 1996; cited from earlier work
[1] = system: patients suffering from Steinert's disease (myotonic dystrophy); details: cited from earlier work
[2] = system: patients suffering from myotonic dystrophy; assay: Oral modafinil treatment of a series of patients with myotonic dystrophy and diurnal hypersomnia, subjective effect; assay type: in vivo, human; details: oral doses of between 100 and 400 mg/day; majority of patients
[3] = system: patient suffering from Steinert's disease; assay: Epworth somnolence scale in a patient suffering from Steinert's disease; assay type: in vivo, human; details: score before treatment 20
Procedure: By way of example, in a patient suffering from Steinert's disease, which is characterized, inter alia, by a temporal atrophy, ptosis, a myotony associated with muscle weakness, behavioural disorders and somnolence (the start of which went back to 1988) with sleep paralyses, without hypnogogic hallucinations or attacks of cataplexy, a decrease was observed of 18 units on the Epworth somnolence scale (see Johns M. W. Sleep, 1991, 14, 540) after treatment with an oral dose of 100 mg per day of modafinil for six months, between February 1999 (score on the Epworth scale=20) and August 1999 (score on the Epworth scale=2).

[4] = system: patients suffering from Steinert's disease; assay: Karolinska KSS somnolence scale in patients suffering from Steinert's disease; assay type: in vivo, human
Source text: In the second patient of this series, the telling morphotype and a myotony of both hands associated with muscular deficiency existed. Without treatment, diurnal hypersomnia was very pronounced (Epworth scale: 16).

dopamine = details: within the dose ranges which modify consciousness; cited from earlier work
[5] = cited from earlier work

## C[C@H](N)Cc1ccccc1 [d-amphetamine]
c-fos proto-oncogene
  expression of c-fos proto-oncogene in the central dopaminergic projection zones (including the cortex): highly expressed

## COC(=O)C(c1ccccc1)C1CCCCN1 (stereo not shown) [methylphenidate]
[1]; Van der Meché et al. 1986
  level of consciousness: improvement in the level of consciousness was observed
c-fos proto-oncogene
  expression of c-fos proto-oncogene in the central dopaminergic projection zones (including the cortex): highly expressed

## NC(=O)C[S+]([O-])C(c1ccccc1)c1ccccc1 (stereo not shown) [modafinil, benzhydrylsulphinylacetamide]
[2]
  effect of treatment on vigilance disorders and diurnal somnolence: subjectively effective
[3]; oral dose of 100 mg per day for six months (August 1999)
  score on the Epworth scale after treatment: 2
[3]; oral dose of 100 mg per day for six months
  decrease on the Epworth somnolence scale: 18 units
[4]; patient, dose 200 mg/day
  personal and professional daily life: considerable improvement
[4]; patient, dose 200 mg/day, before: 8
  somnolence score on the Karolinska KSS scale after treatment: 2
[4]; second patient, dose 600 mg/day
  diurnal somnolence attacks: partial resolution
[4]; second patient, dose 600 mg/day, before: 8
  somnolence score on the Karolinska scale after treatment: 4
dopamine
  effect on dopamine: no effect
c-fos proto-oncogene
  expression of c-fos proto-oncogene in the central dopaminergic projection zones (including the cortex): not expressed
[5]; addictive substance discrimination tests
  generalization of the effects with amphetamine: very weak
[5]; in vivo
  self-administration and preference of place: leads neither to self-administration nor to preference of place
  self-administration of cocaine: does not modify

## C#CCN(C)[C@H](C)Cc1ccccc1 [selegiline]
[1]; dose of 20 mg/day, Antonini et al. 1997
  effectiveness on diurnal hypersomnolence: ineffective
